Data reported in US20100120752A1, “MUSCARINIC AGONISTS TO TREAT IMPULSE CONTROL DISORDERS” (Solvay Pharmaceuticals, B.V., priority 2007, published 2010).

Assays:
Male Wistar rats = assay: 5-Choice Serial Reaction Time task, xanomeline or desmethylclozapine alone; format: in vivo, rat; conditions: for number of anticipatory responses / number of correct responses / number of fault responses / number of missed responses / percentage of correct responses / persevering responses / total number of responses: ±S.E.M.; for effect on number of anticipatory responses: at 10 mg/kg, table 2
Text: (§1) Male Wistar rats weighing 330-450 g (Harlan, The Netherlands) were housed in pairs under a 12-h light/dark cycle (lights off at 7:00 a.m.) and had daily access to a limited amount of food that kept their body weight at approximately 85% of the free feeding weight. Water was available ad libitum. All procedures were in compliance with the European Communities Council Directive of Nov. 24, 1986 (86/609 EEC).
(§2) Standard 5-CSRT boxes from MED associates Inc. Georgia, Vt. US were used. The curved wall of the chamber contained five 1.6 cm2 holes, 2.2 cm deep, 2 cm above floor level. […] In every hole a yellow stimulus light was presented. A food dispenser was located at the opposite wall. The box was illuminated by a 28 Volt 100 mA house light. The 5-CSRT boxes were placed in sound attenuating cubicles. On-line control of the apparatus and data collection were performed by a MED-PC experimental apparatus programming system (Tatham, 1989), running on a Dell Optiplex GX1 PC.
(§3) Rats were first trained to collect reinforcement pellets from the food dispenser and to collect reinforcements that were placed in the 5 holes in order to habituate the animals to the 5-CSRT task apparatus. Next, training of the 5-CSRT task started. These sessions started by illumination of the light in one of the holes for 30 seconds (stimulus duration). A response by the rat into the illuminated hole or a response in that particular hole for a short period of time after the illumination (the limited hold 60 sec) was rewarded with the delivery of a food pellet, termination of the trial and a correct response was recorded. The light stimulus was presented in each of the holes 20 times during a session (total of 100 presentations), and the order of presentations was randomized. […] After termination of the trial a variable inter-trial interval was started (1, 3, 5, 7 or 9 sec) after which the next trial was started. Upon reaching a 75% correct performance level the duration of illumination of the light stimulus was reduced until a presentation of 0.5 sec (from 30 to 20, 10, 5, 2, 1, 0.9; 0.8; 0.7; 0.6; 0.5.) and a limited hold of 5 sec (in three steps from 30 to 20, 10 and 5 sec), was reached. (Robbins, 1993).
(§4) The following parameters were measured (Muir, 1996):
(§5) Accuracy: the percentage correct responses divided by the total responses made.
(§6) Errors of omission: the number of missed stimulus presentations.
(§7) Correct responses: the number of correct responses.
(§8) Fault responses: the number of responses in the wrong hole.
(§9) Anticipatory responses: the number of premature responses made preceding the presentation of the light stimulus.
(§10) Persevering responses: responses emitted after an incorrect or correct response.
Xanomeline, a mixed muscarine-M1 and muscarine-M4 agonist, and desmethylclozapine, a muscarinic-M1 agonist and muscarinic-M4 antagonist, were each tested in a Latin hexagon design, meaning that each rat received all test-dosages (0, 1, 3 and 10 mg/kg i.p.) in a random order.

[1] = test system: MK801 induced increase of anticipatory responses of rats; assay: 5-Choice Serial Reaction Time task, interaction studies against MK801; format: in vivo, rat; conditions: for % correct resp / nr anticipatory resp / nr of correct resp / nr of fault resp / nr of missed resp / persevering resp / total nr of resp: ±SEM; for effect on increase in anticipatory responses induced by MK801 / effect on increase in persevering responses induced by MK801: table 3
Text: as §1, §2, §3, §4, §5, §6, §7, §8, §9, §10
Both xanomeline and desmethylclozapine were each tested in the same dose range against 0.05 mg/kg (s.c.) MK801, a dose shown to elicit unequivocal impulsive behavior (see Table 1).

[2] = 1 mg/kg against 0.05 mg/kg (s.c.) MK801
[3] = 3 mg/kg against 0.05 mg/kg (s.c.) MK801
[4] = 10 mg/kg against 0.05 mg/kg (s.c.) MK801

Structure (SMILES): CCCCCCOc1nsnc1C1=CCCN(C)C1 [xanomeline]
- number of anticipatory responses (Male Wistar rats; 1 mg/kg i.p.): 58.0 ± 7.9
- number of correct responses (Male Wistar rats; 1 mg/kg i.p.): 53.0 ± 2.4
- number of fault responses (Male Wistar rats; 1 mg/kg i.p.): 22.7 ± 1.6
- number of missed responses (Male Wistar rats; 1 mg/kg i.p.): 24.3 ± 2.4
- percentage of correct responses (Male Wistar rats; 1 mg/kg i.p.): 70.0 ± 2.1%
- persevering responses (Male Wistar rats; 1 mg/kg i.p.): 6.3 ± 1.1
- total number of responses (Male Wistar rats; 1 mg/kg i.p.): 75.1 ± 2.4
- number of anticipatory responses (Male Wistar rats; 3 mg/kg i.p.): 60.8 ± 4.9
- number of correct responses (Male Wistar rats; 3 mg/kg i.p.): 51.2 ± 2.5
- number of fault responses (Male Wistar rats; 3 mg/kg i.p.): 21.7 ± 1.8
- number of missed responses (Male Wistar rats; 3 mg/kg i.p.): 27.2 ± 2.2
- percentage of correct responses (Male Wistar rats; 3 mg/kg i.p.): 70.2 ± 2.5%
- persevering responses (Male Wistar rats; 3 mg/kg i.p.): 6.7 ± 1.4
- total number of responses (Male Wistar rats; 3 mg/kg i.p.): 72.8 ± 2.2
- number of anticipatory responses (Male Wistar rats; 10 mg/kg i.p.): 21.5 ± 6.4
- number of correct responses (Male Wistar rats; 10 mg/kg i.p.): 37.2 ± 2.6
- number of fault responses (Male Wistar rats; 10 mg/kg i.p.): 15.0 ± 1.8
- number of missed responses (Male Wistar rats; 10 mg/kg i.p.): 46.8 ± 3.7
- percentage of correct responses (Male Wistar rats; 10 mg/kg i.p.): 72.1 ± 2.3%
- persevering responses (Male Wistar rats; 10 mg/kg i.p.): 4.9 ± 0.9
- total number of responses (Male Wistar rats; 10 mg/kg i.p.): 53.2 ± 3.7
- effect on number of anticipatory responses (Male Wistar rats): reduced
- % correct resp [1, 2]: 70.2 ± 3.8%
- nr anticipatory resp [1, 2]: 75.3 ± 10.5
- nr of correct resp [1, 2]: 58.7 ± 4.4
- nr of fault resp [1, 2]: 23.8 ± 2.4
- nr of missed resp [1, 2]: 17.6 ± 3.1
- persevering resp [1, 2]: 15.3 ± 2.5
- total nr of resp [1, 2]: 82.4 ± 3.1
- % correct resp [1, 3]: 71.6 ± 2.4%
- nr anticipatory resp [1, 3]: 99.3 ± 11.1
- nr of correct resp [1, 3]: 57.4 ± 2.7
- nr of fault resp [1, 3]: 22.7 ± 1.9
- nr of missed resp [1, 3]: 19.9 ± 2.4
- persevering resp [1, 3]: 14.1 ± 3.5
- total nr of resp [1, 3]: 80.1 ± 2.4
- % correct resp [1, 4]: 74.4 ± 2.8%
- nr anticipatory resp [1, 4]: 47.5 ± 8.4
- nr of correct resp [1, 4]: 50.9 ± 2.4
- nr of fault resp [1, 4]: 18.0 ± 2.2
- nr of missed resp [1, 4]: 31.1 ± 3.0
- persevering resp [1, 4]: 8.5 ± 1.1
- total nr of resp [1, 4]: 68.9 ± 3.0
- effect on increase in anticipatory responses induced by MK801 [1]: antagonize
- effect on increase in persevering responses induced by MK801 [1]: antagonize

Structure (SMILES): Clc1ccc2c(c1)N=C(N1CCNCC1)c1ccccc1N2 [desmethylclozapine]
- number of anticipatory responses (Male Wistar rats; 1 mg/kg i.p.): 50.2 ± 4.9
- number of correct responses (Male Wistar rats; 1 mg/kg i.p.): 52.2 ± 3.2
- number of fault responses (Male Wistar rats; 1 mg/kg i.p.): 19.4 ± 2.2
- number of missed responses (Male Wistar rats; 1 mg/kg i.p.): 28.4 ± 3.2
- percentage of correct responses (Male Wistar rats; 1 mg/kg i.p.): 72.9 ± 3.1%
- persevering responses (Male Wistar rats; 1 mg/kg i.p.): 7.8 ± 1.4
- total number of responses (Male Wistar rats; 1 mg/kg i.p.): 71.6 ± 3.2
- number of anticipatory responses (Male Wistar rats; 3 mg/kg i.p.): 51.3 ± 7.5
- number of correct responses (Male Wistar rats; 3 mg/kg i.p.): 51.9 ± 3.1
- number of fault responses (Male Wistar rats; 3 mg/kg i.p.): 20.1 ± 2.2
- number of missed responses (Male Wistar rats; 3 mg/kg i.p.): 28.0 ± 2.2
- percentage of correct responses (Male Wistar rats; 3 mg/kg i.p.): 71.9 ± 3.2%
- persevering responses (Male Wistar rats; 3 mg/kg i.p.): 8.8 ± 1.2
- total number of responses (Male Wistar rats; 3 mg/kg i.p.): 72.0 ± 2.2
- number of anticipatory responses (Male Wistar rats; 10 mg/kg i.p.): 34.5 ± 3.9
- number of correct responses (Male Wistar rats; 10 mg/kg i.p.): 48.5 ± 3.9
- number of fault responses (Male Wistar rats; 10 mg/kg i.p.): 17.5 ± 2.0
- number of missed responses (Male Wistar rats; 10 mg/kg i.p.): 34.0 ± 2.9
- percentage of correct responses (Male Wistar rats; 10 mg/kg i.p.): 72.6 ± 3.6%
- persevering responses (Male Wistar rats; 10 mg/kg i.p.): 5.5 ± 0.9
- total number of responses (Male Wistar rats; 10 mg/kg i.p.): 66.0 ± 2.9
- effect on number of anticipatory responses (Male Wistar rats): reduced
- % correct resp [1, 2]: 67.2 ± 2.6%
- nr anticipatory resp [1, 2]: 141.8 ± 20.8
- nr of correct resp [1, 2]: 52.5 ± 3.4
- nr of fault resp [1, 2]: 25.1 ± 1.9
- nr of missed resp [1, 2]: 22.4 ± 3.1
- persevering resp [1, 2]: 24.8 ± 2.8
- total nr of resp [1, 2]: 77.6 ± 3.1
- % correct resp [1, 3]: 69.6 ± 2.6%
- nr anticipatory resp [1, 3]: 104.3 ± 18.4
- nr of correct resp [1, 3]: 55.2 ± 2.8
- nr of fault resp [1, 3]: 24.4 ± 2.4
- nr of missed resp [1, 3]: 20.4 ± 3.6
- persevering resp [1, 3]: 16.3 ± 2.1
- total nr of resp [1, 3]: 79.6 ± 3.6
- % correct resp [1, 4]: 70.1 ± 3.1%
- nr anticipatory resp [1, 4]: 78.6 ± 14.5
- nr of correct resp [1, 4]: 52.7 ± 3.9
- nr of fault resp [1, 4]: 21.6 ± 2.0
- nr of missed resp [1, 4]: 25.8 ± 3.7
- persevering resp [1, 4]: 17.3 ± 3.4
- total nr of resp [1, 4]: 74.3 ± 3.7
- effect on increase in anticipatory responses induced by MK801 [1]: antagonize
- effect on increase in persevering responses induced by MK801 [1]: antagonize
